What was measured:
[1] = test system: MCF-7 breast carcinoma cells; experiment: Suppression of thymidine incorporation, dose-response (FIG. 13); type: cell-based, human; conditions: MCF-7 with 17-β-estradiol, 72 h; oleanolic acid statement at concentrations of 1 μM or less
Procedure: (§1) Inhibitors of cell proliferation are known to be useful chemopreventive and chemotherapeutic agents. CDDO was tested against a wide variety of cells derived from highly aggressive leukemias and carcinomas, as well as from non-neoplastic tissues. NRP-152 cells were grown as described in Danielpour et al., 1994. MCF-7 cells were grown in phenol red-free RPMI 1640/10% charcoal-stripped FBS with added 17-β-estradiol (10 μM). Triterpenoids were added at the time of plating, and 72 h later ^3H-thymidine (1 μCi/well) was added for the final 2 h of incubation. Incorporation of thymidine was measured after cells were precipitated with TCA (10%), washed, and solubilized. The symbols used in FIG. 13 are CDDO, ▪; TP-82, ◯; and oleanolic acid; ●.

[2] = test system: NRP-152 non-malignant prostate epithelium cells; experiment: as above; type: cell-based, rat; conditions: NRP-152, 72 h; oleanolic acid statement at concentrations of 1 μM or less
Procedure: as §1

[3] = test system: PC12 pheochromocytoma cells; experiment: Neuronal differentiation / neurite outgrowth, image analysis; type: cell-based, rat
Procedure: CDDO induces monocytic differentiation in the poorly differentiated LCDB acute myelogenous leukemia cell line, derived from a chemotherapy-resistant patient at the NCI Pediatric Oncology Branch. FIG. 11 illustrates LCDB cells seeded in RPMI 1640/2% FBS, either alone (11A), with 2.5 ng/ml TGF-β1 (11B), with 10^−8 M CDDO (11C), or with both TGF-β1 and CDDO (11D). After 48 h, cytospin slide preparations were made and stained for α-naphthyl acetate esterase activity (kit from Sigma). PC12 cells were cultured for 5 days in gridded dishes in DMEM/10% FBS and 5% horse serum (Smith et al., 1997), either alone (11E), with 100 ng/ml 7S NGF (11F), with 10^−6 M CDDO (11G), or with both NGF and CDDO (11H). […] Methods for quantitative image analysis of size of cells and neurites have been described (De 1a Torre et al., 1997). Control cells in FIG. 11E are approximately 10 μm in diameter. 3T3-L1 cells were grown to confluency in DMEM/5% calf serum, and then treated once with CDDO in DMEM/10% FBS (FIG. 12A) or with CDDO and/or LG100268 in DMEM/10% FBS (FIG. 12B). Every two days thereafter, medium was changed to DMEM/10% FBS, without added CDD0 or LG100268. Cells were harvested on day 8 (FIG. 12A) or day 6 (FIG. 12B), and GPDH was measured in lysates, using a standard assay for consumption of NADH at 340 nm (Wise and Green, 1979).
The rat pheochromocytoma cell line, PC12, has been widely used to study neuronal development and differentiation. Treatment of these tumor cells with NGF is known to induce a neuronal phenotype, with extensive neurite outgrowth (Greene and Rischler, 1976; Guroff 1985). CDDO markedly potentiates these effects of NGF. FIGS. 11E and F show the induction of neurite outgrowth by NGF (100 ng/ml). […] When used in combination with NGF, CDDO (FIG. 11H) almost doubled the number of primary neurites/cell (from 1.2±0.2 S.E.M. to 2.1±0.1, p<0.001), and caused a greater than 3-fold increase in length of neurites (from 28±6 to 99±9 microns, p<0.001), and a 5-fold increase in neurite branching/cell (from 0.23±0.06 to 1.13±0.08, p<0.001). Thus, CDDO enhances neuronal differentiation of PC12 cells by increasing cell size, as well as the extent and complexity of neurite arborization.

[4] = test system: NO production in primary macrophages; experiment: Suppression of NO production in primary macrophages (FIG. 14C); type: cell-based, mouse; conditions: levels as low as 10^−9 M; IFN-γ 10 ng/ml, 48 h
Procedure: (§2) FIG. 14(A) illustrates Western blots; primary mouse macrophages; IFN-γ, 10 ng/ml; LPS, 2 ng/ml were added to cultures together with triterpenoids or dexamethasone (concentrations shown as […]); cells were harvested at 12 h. FIG. 14(B) illustrates Northern blots, RAW 264.7 macrophage-like cell line. IFN-γ, 10 ng/ml; LPS, 1 ng/ml; TNF-α, 10 ng/ml, were added to cultures together with CDDO or dexamethasone. RNA prepared after 12 h; GAPDH used as a loading control. FIG. 14(C) illustrates suppression of production of NO and PGEF in primary macrophages. For NO studies, cells were treated with IFN-γ, 10 ng/ml, together with CDDO (M), dexamethasone (O), TP-82 (□), or oleanolic acid (A). After 48 h, supernatants were analyzed for NO by the Griess reaction. For PGEF studies, cells were treated with IFN-γ, 5 ng/ml, and LPS, 5 ng/ml, together with the same set of inhibitors. After 48 h, PGE was measured in supernatants by immunoassay. Control values (no inhibition) for NO and PGE2 were 4.7 nmol/[…] and 2.2 ng/ml/2×10^5 cells, respectively. FIGS. (14D) and (14E) illustrate (human colon myofibroblasts) ^18Co cells grown in MEM/10% FBS; other methods are the same as reported above for macrophages. FIG. 14(D) illustrates Northern blots showing dose-response for suppression of COX-2 mRNA after induction with IL-1β (30 pg/ml). CDDO was added together with IL-1. […]

[5] = test system: PGE2 production in 18Co cells; experiment: PGE2 in culture medium of IL-1β-treated 18Co cells; type: cell-based, human; conditions: IL-1β 30 pg/ml
Procedure: as §2

[6] = test system: COX-2; experiment: TPA-induced COX-2 in 18Co cells; type: cell-based, human
From the text: These cells were selected because of the importance of stromal cell COX-2 in colon carcinogenesis (Oshima et al., 1996). […] Although CDDO effectively blocks the induction of COX-2 by agents such as IFN-γ, LPS, TNF-α, and IL-1, CDDO is ineffective when TPA is used as the inducer of COX-2. This has been seen in 18Co cells, as well as in the human mammary epithelial cell line, 184B5/HER (Zhai et al., 1993).

[7] = test system: NO production in primary mouse macrophages; experiment: NO production induced by LPS and IFN-γ in primary mouse macrophages (FIG. 7); type: cell-based
[8] = CDDO 10^−6 M in combination with NGF 100 ng/ml, 5 days

Compound: CC1(C)CC[C@]2(C(=O)O)CC[C@]3(C)[C@H](C(=O)C=C4[C@@]5(C)C=C(C#N)C(=O)C(C)(C)[C@@H]5CC[C@]43C)[C@@H]2C1 [Compound 6, 2-cyano-3,12-dioxoolean-1,9-dien-28-oic acid]
- suppressing thymidine incorporation [1]: highly active in the nanomolar range
- suppressing thymidine incorporation [2]: highly active in the nanomolar range
- cell morphology ([3]; CDDO 10^−6 M by itself, 5 days): larger, flatter morphology
- neurite formation ([3]; CDDO 10^−6 M by itself, 5 days): does not induce neurite formation
- length of neurites [3, 8]: 99±9 microns
- neurite branching/cell [3, 8]: 1.13±0.08
- number of primary neurites/cell ([3]; CDDO 10^−6 M in combination with NGF 100 ng/ml, 5 days, ± S.E.M.): 2.1±0.1
- increase in length of neurites over NGF alone ([3]; CDDO in combination with NGF): greater than 3 fold
- increase in neurite branching/cell over NGF alone ([3]; CDDO in combination with NGF): 5 fold
- inhibition of cumulative NO production [4]: Significant inhibition
- PGE2 levels in the culture medium [5]: lowering of PGE2 levels
- blocking of COX-2 induction with TPA as inducer [6]: ineffective
- activity on LPS and IFN-γ induced NO production compared with dexamethasone (FIG. 7) [7]: favorable to that of dexamethasone
